Test results taken from patent US11787785B2 (NOVARTIS AG, priority 2021, dated 2023).

Molecular target: T1, WIZ protein (HiBit-WIZ fusion protein) (Homo sapiens, UniProt O95785+Q96SW2)
T1 construct: expressed in transfected cells
Assay: Quantification of WIZ protein levels in HiBit tag fusion protein assay (WIZ HiBit assay in 293T cells)
Format: cell-based
Conditions: for Dmax at 25 µM / remaining activity at 25 µM: HEK-293T, 293T cells; for Dmax at 25 µM: 100 − Amax, read-out: % degradation of WIZ (100 − Amax); for remaining activity at 25 µM: DMSO-normalized, curve-fitted percentage of WIZ-HiBit remaining at 25 uM, read-out: WIZ Amax; for DC50: WIZ HiBit assay in 293T cells, 10-point, 5-fold dose response, highest concentration 25 μM, about 18 hours, read-out: WIZ AC50
Method in brief: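 HiBit-tagged WIZ (N-terminal tag, HSVTK promoter) stably expressed single-copy in 293T cells; 10-point 1:5 compound series, top 25 μM, ~18 h at 37 °C. Lytic HiBit/LgBit luminescence read; Amax = curve-fitted % WIZ-HiBit remaining at 25 μM, DMSO normalized to 100%.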

T1 sequence (O95785 whole entry, the tested form may be a part): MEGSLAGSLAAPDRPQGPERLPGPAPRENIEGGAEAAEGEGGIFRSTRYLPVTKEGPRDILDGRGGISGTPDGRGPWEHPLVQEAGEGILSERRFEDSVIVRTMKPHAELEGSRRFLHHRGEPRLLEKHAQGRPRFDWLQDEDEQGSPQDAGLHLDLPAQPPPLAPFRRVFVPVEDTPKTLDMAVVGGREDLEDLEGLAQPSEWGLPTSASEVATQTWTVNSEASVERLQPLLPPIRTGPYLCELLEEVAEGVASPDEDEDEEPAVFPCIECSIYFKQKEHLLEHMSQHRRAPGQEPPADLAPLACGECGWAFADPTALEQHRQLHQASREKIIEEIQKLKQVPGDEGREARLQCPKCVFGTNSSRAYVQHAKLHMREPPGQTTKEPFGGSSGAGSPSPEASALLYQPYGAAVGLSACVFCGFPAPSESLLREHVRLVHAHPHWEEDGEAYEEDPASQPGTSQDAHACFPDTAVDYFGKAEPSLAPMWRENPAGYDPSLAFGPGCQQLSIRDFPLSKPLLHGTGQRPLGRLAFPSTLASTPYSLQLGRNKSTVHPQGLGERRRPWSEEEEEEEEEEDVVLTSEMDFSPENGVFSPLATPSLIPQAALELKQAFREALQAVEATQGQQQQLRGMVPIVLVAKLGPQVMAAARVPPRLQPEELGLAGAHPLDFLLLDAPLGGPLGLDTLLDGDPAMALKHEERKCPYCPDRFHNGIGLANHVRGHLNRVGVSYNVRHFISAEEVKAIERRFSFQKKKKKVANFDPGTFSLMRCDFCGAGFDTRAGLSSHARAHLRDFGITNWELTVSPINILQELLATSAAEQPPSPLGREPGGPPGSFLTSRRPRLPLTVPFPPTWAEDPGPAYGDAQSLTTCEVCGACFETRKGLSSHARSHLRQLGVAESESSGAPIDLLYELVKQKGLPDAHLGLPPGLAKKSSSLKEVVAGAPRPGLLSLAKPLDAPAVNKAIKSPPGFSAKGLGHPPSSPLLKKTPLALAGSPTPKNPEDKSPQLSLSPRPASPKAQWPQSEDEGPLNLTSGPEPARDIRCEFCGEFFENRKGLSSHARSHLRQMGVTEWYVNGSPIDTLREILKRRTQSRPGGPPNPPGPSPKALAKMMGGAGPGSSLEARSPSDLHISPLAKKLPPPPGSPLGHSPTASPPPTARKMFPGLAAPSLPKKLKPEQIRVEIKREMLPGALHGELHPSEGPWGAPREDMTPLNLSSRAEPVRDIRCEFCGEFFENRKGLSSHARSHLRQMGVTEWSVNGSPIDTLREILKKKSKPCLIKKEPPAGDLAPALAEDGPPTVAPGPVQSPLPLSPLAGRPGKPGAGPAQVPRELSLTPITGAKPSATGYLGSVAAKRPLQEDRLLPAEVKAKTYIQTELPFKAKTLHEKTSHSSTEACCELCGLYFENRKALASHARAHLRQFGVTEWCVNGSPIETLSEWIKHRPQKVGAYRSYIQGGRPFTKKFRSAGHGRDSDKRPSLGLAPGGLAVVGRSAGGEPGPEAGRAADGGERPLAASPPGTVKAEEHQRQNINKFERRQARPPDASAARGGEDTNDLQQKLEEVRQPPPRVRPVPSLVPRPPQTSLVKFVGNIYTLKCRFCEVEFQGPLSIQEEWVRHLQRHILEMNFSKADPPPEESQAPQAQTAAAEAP
T1 sequence (Q96SW2 whole entry, the tested form may be a part): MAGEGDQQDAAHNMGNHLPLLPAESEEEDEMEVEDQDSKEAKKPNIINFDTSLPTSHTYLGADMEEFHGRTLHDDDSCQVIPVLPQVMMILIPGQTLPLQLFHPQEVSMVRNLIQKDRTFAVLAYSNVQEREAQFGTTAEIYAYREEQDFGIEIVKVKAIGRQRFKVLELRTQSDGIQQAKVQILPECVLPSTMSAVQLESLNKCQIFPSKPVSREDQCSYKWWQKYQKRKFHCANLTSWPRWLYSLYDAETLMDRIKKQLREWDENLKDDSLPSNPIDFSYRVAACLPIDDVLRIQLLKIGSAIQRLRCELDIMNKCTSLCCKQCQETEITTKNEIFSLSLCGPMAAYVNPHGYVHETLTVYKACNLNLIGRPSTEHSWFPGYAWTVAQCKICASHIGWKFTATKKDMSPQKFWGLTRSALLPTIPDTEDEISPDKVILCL
T1 sequence (Q16531 whole entry partner, the tested form may be a part): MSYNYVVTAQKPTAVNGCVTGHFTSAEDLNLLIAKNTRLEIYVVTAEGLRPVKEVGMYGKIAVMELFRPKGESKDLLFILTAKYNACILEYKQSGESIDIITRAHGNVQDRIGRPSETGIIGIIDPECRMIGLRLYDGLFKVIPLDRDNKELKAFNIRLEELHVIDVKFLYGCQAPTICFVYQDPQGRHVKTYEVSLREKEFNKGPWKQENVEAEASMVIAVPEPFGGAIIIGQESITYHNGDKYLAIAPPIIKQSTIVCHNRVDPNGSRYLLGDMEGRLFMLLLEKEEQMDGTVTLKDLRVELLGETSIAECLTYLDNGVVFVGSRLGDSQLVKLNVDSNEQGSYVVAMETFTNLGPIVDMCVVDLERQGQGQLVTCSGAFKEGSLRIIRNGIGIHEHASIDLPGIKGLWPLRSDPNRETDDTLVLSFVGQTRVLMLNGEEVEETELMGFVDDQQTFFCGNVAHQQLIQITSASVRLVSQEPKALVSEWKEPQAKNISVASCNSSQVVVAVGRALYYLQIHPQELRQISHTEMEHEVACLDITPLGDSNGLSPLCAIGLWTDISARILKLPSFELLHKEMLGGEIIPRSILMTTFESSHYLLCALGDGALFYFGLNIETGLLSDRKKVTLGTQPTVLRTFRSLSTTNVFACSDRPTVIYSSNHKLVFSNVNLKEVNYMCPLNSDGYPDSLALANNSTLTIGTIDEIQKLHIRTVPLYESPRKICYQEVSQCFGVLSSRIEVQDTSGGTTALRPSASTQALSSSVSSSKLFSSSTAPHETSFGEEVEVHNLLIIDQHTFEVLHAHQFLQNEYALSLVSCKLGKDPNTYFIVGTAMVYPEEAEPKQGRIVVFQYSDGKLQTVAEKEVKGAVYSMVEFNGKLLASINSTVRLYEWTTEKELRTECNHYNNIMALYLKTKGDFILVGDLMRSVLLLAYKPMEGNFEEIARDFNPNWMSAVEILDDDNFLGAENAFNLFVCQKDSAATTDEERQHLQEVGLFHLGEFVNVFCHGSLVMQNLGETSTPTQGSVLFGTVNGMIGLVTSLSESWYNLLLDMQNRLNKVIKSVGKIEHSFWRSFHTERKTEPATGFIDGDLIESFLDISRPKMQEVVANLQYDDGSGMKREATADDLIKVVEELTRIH

SMILES	Dmax at 25 µM	remaining activity at 25 µM	DC50
O=C1CCN(c2cnn3ccc(CC4CCN(Cc5ccc(F)cc5F)CC4)cc23)C(=O)N1 [Example 50, 1-(5-((1-(2,4-difluorobenzyl)piperidin-4-yl)methyl)pyrazolo[1,5-a]pyridin-3-yl)dihydropyrimidine-2,4(1H,3H)-dione]	66%	34%	113 nM
CC(C)CN1CCN(Cc2ccn3ncc(-n4cc(F)c(=O)[nH]c4=O)c3c2)C[C@@H]1C [Example 358, (S)-5-fluoro-1-(5-((4-isobutyl-3-methylpiperazin-1-yl)methyl)pyrazolo[1,5-a]pyridin-3-yl)pyrimidine-2,4(1H,3H)-dione]	86%	14%	128 nM
CS(=O)(=O)N1CCC(Cc2ccn3ncc(N4CCC(=O)NC4=O)c3c2)CC1 [Example 90]	77%	23%	2000 nM
O=C1CCN(c2cnn3ccc(CC4CNC4)cc23)C(=O)N1 [Example 133, 1-(5-(azetidin-3-ylmethyl)pyrazolo[1,5-a]pyridin-3-yl)dihydropyrimidine-2,4(1H,3H)-dione]	21%	79%	4800 nM
C[C@H]1C[C@H](Cc2ccn3ncc(N4CCC(=O)NC4=O)c3c2)CCN1CC1CCO1 (stereo partly drawn) [Example 277, 1-(5-(((2S,4R)-2-methyl-1-(oxetan-2-ylmethyl)piperidin-4-yl)methyl)pyrazolo[1,5-a]pyridin-3-yl)dihydropyrimidine-2,4(1H,3H)-dione]	76%	24%	203 nM
C[C@H]1CN(Cc2ccn3ncc(N4CCC(=O)NC4=O)c3c2)CCN1Cc1cccnc1 [Example 208]	60%	40%	580 nM
CC(C)(C)OC(=O)N1CCC(Cc2ccn3ncc(N4CCC(=O)NC4=O)c3c2)CC1 [Example 97, tert-butyl 4-((3-(2,4-dioxotetrahydropyrimidin-1(2H)-yl)pyrazolo[1,5-a]pyridin-5-yl)methyl)piperidine-1-carboxylate]	44%	56%	24800 nM
CC(C)[C@H]1CN(Cc2ccn3ncc(N4CCC(=O)NC4=O)c3c2)CCN1CC1CCOCC1 [Example 230, (S)-1-(5-((3-isopropyl-4-((tetrahydro-2H-pyran-4-yl)methyl)piperazin-1-yl)methyl)pyrazolo[1,5-a]pyridin-3-yl)dihydropyrimidine-2,4(1H,3H)-dione]	0%	100%	> 25000 nM
O=C1CCN(c2cnn3ccc(CC4CCN(Cc5cccc(F)c5)C4)cc23)C(=O)N1 (stereo not drawn) [Example 131]	38%	62%	370 nM
O=C1CCN(c2cnn3ccc(CN4CCN(CC5CC5)CC4)cc23)C(=O)N1 [Example 189, 1-(5-((4-(cyclopropylmethyl)piperazin-1-yl)methyl)pyrazolo[1,5-a]pyridin-3-yl)dihydropyrimidine-2,4(1H,3H)-dione]	71%	29%	191 nM
CC(C)(CN1CCN(Cc2ccn3ncc(N4CCC(=O)NC4=O)c3c2)CC1)C(F)(F)F [Example 241, 1-(5-((4-(3,3,3-trifluoro-2,2-dimethylpropyl)piperazin-1-yl)methyl)pyrazolo[1,5-a]pyridin-3-yl)dihydropyrimidine-2,4(1H,3H)-dione]	44%	56%	351 nM

Stronger by DC50, values ahead:

Dmax at 25 µM	remaining activity at 25 µM	DC50	SMILES
74%	26%	101 nM	CC(C)CN1[C@H](C)CN(Cc2ccn3ncc(N4CCC(=O)NC4=O)c3c2)C[C@@H]1C [Example 257, 1-(5-(((3S,5R)-4-isobutyl-3,5-dimethylpiperazin-1-yl)methyl)pyrazolo[1,5-a]pyridin-3-yl)dihydropyrimidine-2,4(1H,3H)-dione]
57%	43%	99 nM	CC(C)(C)OC(=O)N1CCCC(Cc2ccn3ncc(N4CCC(=O)NC4=O)c3c2)CC1 (stereo not drawn) [Example 270, tert-butyl 4-((3-(2,4-dioxotetrahydropyrimidin-1(2H)-yl)pyrazolo[1,5-a]pyridin-5-yl)methyl)azepane-1-carboxylate]
58%	42%	98 nM	O=C1CCN(c2cnn3ccc(CC4CCN(Cc5ccccc5Cl)CC4)cc23)C(=O)N1 [Example 59, 1-(5-((1-(2-chlorobenzyl)piperidin-4-yl)methyl)pyrazolo[1,5-a]pyridin-3-yl)dihydropyrimidine-2,4(1H,3H)-dione]
54%	46%	86 nM	Cc1cccc(CN2CCN(Cc3ccn4ncc(N5CCC(=O)NC5=O)c4c3)CC2)c1 [Example 190, 1-(5-((4-(3-methylbenzyl)piperazin-1-yl)methyl)pyrazolo[1,5-a]pyridin-3-yl)dihydropyrimidine-2,4(1H,3H)-dione]
84%	16%	55 nM	O=C1CCN(c2cnn3ccc(CC4CCN(CCC5CCOCC5)CC4)cc23)C(=O)N1 [Example 11, 1-(5-((1-(2-(tetrahydro-2H-pyran-4-yl)ethyl)piperidin-4-yl)methyl)pyrazolo[1,5-a]pyridin-3-yl)dihydropyrimidine-2,4(1H,3H)-dione]
84%	16%	51 nM	CCCC(CCC)N1CCC(Cc2ccn3ncc(N4CCC(=O)NC4=O)c3c2)CC1 [Example 12, 1-(5-((1-(heptan-4-yl)piperidin-4-yl)methyl)pyrazolo[1,5-a]pyridin-3-yl)dihydropyrimidine-2,4(1H,3H)-dione]
65%	35%	37 nM	O=C1CCN(c2cnn3ccc(CC4CCN(Cc5cccc(F)c5F)CC4)cc23)C(=O)N1 [Example 53, 1-(5-((1-(2,3-difluorobenzyl)piperidin-4-yl)methyl)pyrazolo[1,5-a]pyridin-3-yl)dihydropyrimidine-2,4(1H,3H)-dione]
81%	19%	20 nM	CC(C)CCN1CCC(Cc2ccn3ncc(N4CCC(=O)NC4=O)c3c2)CC1 [Example 19, 1-(5-((1-isopentylpiperidin-4-yl)methyl)pyrazolo[1,5-a]pyridin-3-yl)dihydropyrimidine-2,4(1H,3H)-dione]
86%	14%	10 nM	C[C@@H]1CC(CN2CCN(Cc3ccn4ncc(N5CCC(=O)NC5=O)c4c3)CC2)C[C@H](C)O1 (stereo partly drawn) [Example 193, 1-(5-((4-(((2R,6S)-2,6-dimethyltetrahydro-2H-pyran-4-yl)methyl)piperazin-1-yl)methyl)pyrazolo[1,5-a]pyridin-3-yl)dihydropyrimidine-2,4(1H,3H)-dione]
80%	20%	8 nM	CC(C)C(=O)N1CC[C@@H](Cc2ccn3ncc(N4CCC(=O)NC4=O)c3c2)C[C@@H]1C [Example 288]
88%	12%	8 nM	C[C@H]1C[C@H](Cc2ccn3ncc(N4CCC(=O)NC4=O)c3c2)CCN1C1CCC1 [Example 280, 1-(5-(((2S,4R)-1-cyclobutyl-2-methylpiperidin-4-yl)methyl)pyrazolo[1,5-a]pyridin-3-yl)dihydropyrimidine-2,4(1H,3H)-dione]
